In general, LD50 refers to the dose expected to kill half of the subjects tested. Lower therefore signals a more toxic substance.

From patent US20030175365A1, “Natural drug induced differentiation cancer cells to resemble normal cells” (priority 2002, published 2003) come the findings set out here.

Marks after values point to notes of the source that are not given here.

One series concerns mice. In words: LD50 in mice. It is filed as in vivo. As to conditions: I.P. Here is the method:
(§1) Toxic doses for dogs: 0.16 mg/kg/day×7 of HHT was established as the toxic doses. Toxic doses for mice: In 38 normal mice after injection of HHT of 2 mg/kg/day×5 with the observation period of 5 days about 50% of the mice died.

Series [1] relates to Neuroblastoma tumor cells, melanocytic and epithelial cells. Kind of series: Apoptosis with HHT and APO-2L (filter binding assay). The class given is cell-based. Here is the method: (§2) Neuroblastoma tumor cells, melanocytic and epithelial cells used in this experiment. Cells were grown routinely as monolayers in a 1:1 mixture of Eagle's minimum essential medium and Ham's nutrient mixture F-12 supplemented with 15% heat-inactivated fetal calf serum. Cells were used over a maximum of 15 passages to minimize intersubline differentiation.
Cytotoxicity Assays. Etoposide sensitivity was measured by clonogenic assay. Five hundred cells were plated per 2-cm^2 dish. Cells were treated for 1 hour with HHT or medium. Results are the mean ±S.E. of three independent experiments and duplicate plates were used in each individual experiment. Apoptosis was quantified by the filter binding assay.

The subject of a further series is normal mice. Kind of series: Toxic doses for mice (repeated injection). The class given is in vivo. As to conditions: 38 normal mice, injection of 2 mg/kg/day×5, observation period of 5 days. Here is the method: as §1
The test system of another series is c-myb RNA. Kind of series: Oncogene expression by northern blot in ML-1 cells: c-myb. It is filed as cell-based, Human. Here is the method: (§3) Human myeloblastic leukemic cells (ML-1) were maintained in suspension culture in RPMI 1640 medium supplemented with 7.5% heat-inactivated FBS. Cells growth and viability were assayed by hemocytometer using trypan-blue dye exclusion.
(§4) RNA was isolated by the CsCl gradient modification. RNA pellets were washed twice by reprecipitation in ethanol and quantitated by absorbency at […]. RNA analyzed by electrophoresis of 15 μg of RNA through 1.2% agarose formaldehyde gels followed by northern blot transfer to nitrocellulose.
(§5) Single-standard uniformly labeled DNA probes were prepared. Probe of c-myc was a 1.7 Kb cla-Eco RI restriction fragment containing the 3′exon region of human c-myc and probe of c-myb was 1.0 Kb myb-specific Bam HI fragment. Probes for n-ras contained DNA fragments using a modification of the PCR technique. Probes for myb, myc and n-ras were isolated. The isolated fragments were labeled to high specific activity with […] (3000 ci/mmol). Prehybridization of the filter was performed. The hybridization mixer contained 50,000 cpm of probe. The probes were hybridized at 58° C. in 15 mM NaCl, […] sodium citrate for 3 hours. After hybridization, they were exposed to XAR-5 film. Oncogene expression was quantitated by densitometer scanning of the autoradiography.

The next series deals with tumor suppressor p^17. In words: p17 allelic loss by PCR-SSCP. The class given is cell-based. Here is the method:
The p^17 is a tumor suppressor. The gastric cancer cells were used in this experiment. Gastric cancer cells and normal cells were cultured in RPMI 1640 medium supplement with 10% fetal bovine serum. All the exons of tumor suppressor p^17 were amplified by the polymease chain reaction (PCR) using specific oligonucleotide primers. The PCR products were subjected to single-strand conformation polymorphism (SSCP) analysis. A second PCR-SSCP analysis was performed. Levels of DNA methylation were determined.

Series [2] concerns malignant melanocarcinoma B16. Kind of series: Tumor cell proliferation inhibition, B16. The class given is cell-based, Mouse. As to conditions: 1 μg/ml drug, 72 hours. Here is the method:
(§6) Human tumor cell lines: Hela leukemia HL-60, malignant melanocarcinoma B16, oral epidermoid carcinoma (KB), lung carcinoma (A549), breast carcinoma MCF-7, adenocarcinoma of stomach.
(§7) Animal tumor cell lines: Walker carcinoma, LLC-WRC-256, malignant melanoma (RMMI 1846), 3T3,and S-180 sarcoma (CCRF-180). All lines were routinely cultured in the RPMI1640 medium supplemented 20% fetal calf serum. The experiment was carried out in 96 microplate, each well had […] and given desired concentration of 1 μg/ml (1 x 10^−6 g/ml) drug. Then the plate was incubated at 37° C. in an atmosphere of humidified air enriched with 5 percent carbon dioxide for 72 hours.
(§8) Inhibition percent rate of tumor cell proliferation was obtained according to the bellow formula. [formula]

Series [3] relates to oral epidermoid carcinoma (KB). In words: Tumor cell proliferation inhibition, KB. It is filed as cell-based, Human. As to conditions: 1 μg/ml drug, 72 hours. The method, then: as §6, §7, §8
In a further series the test system is breast carcinoma MCF-7. In words: Tumor cell proliferation inhibition, MCF-7. It is filed as cell-based, Human. As to conditions: 1 μg/ml drug, 72 hours. The method, then: as §6, §7, §8
The next series concerns tumor suppressor p^16. Kind of series: Methylation of tumor suppressor p16 (PCR-based) in bladder cell lines. As to conditions: Cancer cells treated by HHT (no treatment: 81.5; normal: 15.8). The text has this:
Bladder cell lines were used. Methods of RT-PCR were regular. PCR-based methylation determined by inability of some restriction enzymes to cut methylated sequences methods of determination was used to analyze the methylaton status of the p^16 and p^15 . PCR products were resolved on 2% agarose gels transferred to a nylon membrane and hydridized for the RT-PCR products. An undigested DNA control and MSPI-digested DNA control were examined.

The test system of another series is Epidermis cancer cells. In words: Differentiation of epidermis cancer cells (NBT, NSE). The class given is cell-based, mouse. As to conditions: Epidermis cancer cells + HHT; P < 0.001.
For series [4], the system named is TPA-stimulated mouse epidermis. Kind of series: [3H] thymidine incorporation (DNA synthesis) in TPA-stimulated mouse epidermis. The class given is in vivo. As to conditions: TPA-treated mice. The method, then: It is known that tetradecanoyphorbol-13-acetate (TPA) is strong tumor promoter and TPA can remarkable increase [^3H] thymidine incorporation in mouse epidermis and then to induce Epidermis cancer.
ice were treated with TPA and the rate of [^3H] thymidine incorporation was determined 20 hours later. Male mice (7-9 weeks old) used for experiments. Only mice showing no hair regrowth following shaving were used. Animals were injected intraperitoneally (i.p.) with TPA or 95% saline. After 20 hours, mice were injected i.p. with 60 μCi of [^3H] thymidine (2 Ci/mmol) 20 minutes before sacrifice. Epidermal scrapings were prepared. Epidermis cancer cells were cultured in condition of example 1.

A further series has as its system dogs. In words: Toxic doses for dogs. As to conditions: ×7. It is filed as in vivo. Here is the method:
as §1

Another series has as its system caspase-3. Kind of series: Determination of caspase activation (Ac-DEVD-AMC substrate, cell lysate). The class given is cell-based. As to conditions: control 25.4 ± 3.0. Here is the method: as §2
Determination of Caspase Activation. The substrate used was Ac-DEVD-AMC, which was made to 5 mM stock in dimethylformamide. On the day of the assay, substrate stock was diluted in water to 500 μM and kept on ice. Cell lysate (20 μg) was diluted to equal volumes (20 μl) in Nonidet-P40 lysis buffer and 1/10th of the volume of substrate was added. Exactly 10 min later, the reaction was stopped by adding the mix into 2 ml of water. Fluorescence was read on a fluorometer at an excitation wavelength of 380 nm and emission wavelength of 460 nm.

A further series deals with tumor suppressor p^53. Kind of series: p53 mutations by PCR-SSCP. It is filed as cell-based. Here is the method: The leukemic cancer cells and normal cells were cultured in RPMI 1640 medium supplement with 10% fetal bovine serum. All the exons of the p^53 were amplified by the polymease chain reaction (PCR) using specific oligonucleotide primers. The PCR products were subjected to single-strand conformation polymorphism (SSCP) analysis. […] Levels of DNA methylation were determined.

Another series concerns HL-60 cells. In words: Induction of differentiation of human leukemic cells (NBT reduction, NSE staining). As to conditions: Leukemic cells + HHT; P < 0.001 vs leukemic cells. It is filed as cell-based. Here is the method: Cell Lines. HL-60 cells were established from a patient with acute myeloid leukemia. The cells were cultured in culture flasks with RPMI plus 10% FCS.
Studies of Induction of Differentiation. Differentiation of HL-60 cells was assessed by their abilities to produced superoxide as measured by reduction of NBT, by NSE staining and by morphology as detected on cytospin preparations stained with Diff-Quick stain Set, and by analysis of membrane-bound differentiation markers with two-color immunofluorescence. Briefly, cells were preincubated at 4° C. for 60 min in 10% human AB serum and then with FITC-conjugated mouse IgGI isotype control. Analysis of fluorescence was performed on a flow cytometer.

For the next series, the system named is HL-60. Kind of series: Tumor cell proliferation inhibition, HL-60. The class given is cell-based, Human. As to conditions: 1 μg/ml drug, 72 hours. Here is the method:
as §6, §7, §8

Another series concerns Hela. Kind of series: Tumor cell proliferation inhibition, Hela. The class given is cell-based, Human. As to conditions: 1 μg/ml drug, 72 hours. The method, then:
as §6, §7, §8

A further series relates to c-myc RNA. Kind of series: Oncogene expression by northern blot in ML-1 cells: c-myc. It is filed as cell-based, Human. Here is the method:
as §3, §4, §5

In series [5] the test system is Human leukemia cells (HL-60). In words: Apoptosis of cancer cells. The class given is cell-based. As to conditions: drug concentration 20 μm. Here is the method: Human leukemia cells (HL-60) were grown in RPMI Medium 1640 supplemented with 10% (v/v) heat-inactivated FBS (56° C. for 30 min) at 37° C. in a humidified 95% air/5% CO2 atmosphere. Cells were seeded at a level of 2×10^5 cells/ml. Cells were allowed to attain a maximum density of 1.2×10^6 cells/ml before being passed by dilution into fresh medium to a concentration of 2×10^5 cells/ml.
Apoptosis Determined by two Methods:
Method (1): Cell pellets containing 5×10^6 cells were fixed with 2.5% glutaraldehyde in cacodylate buffer (pH 7.4), dehydrated through graded alcohol, and infiltrated with LX-112 epoxy resin. After overnight polymerization at 60°C. […]
DNA electrophoresis: Untreated and treated HL-60 cells collected by centrifugation, washed in phosphate buffered saline and re-suspended at a concentration of 5×10^6 cells and 0.1% RNase A. The mixture was incubated at 37° C. for 30 min and then incubated for an additional 30 min at 37° C. with 1 ml protease K. Buffer was added and 25 μl of the tube content transferred to the Horizontal 1.5% agarose gel electrophoresis was performed at 2 V/cm. […] DNA fragmentation assays: DNA cleavage was performed, quantitation of fractional solubilized DNA by diphenylamine assay and the percentage of cells harboring fragmented DNA determined by in labeling techniques. […] DNA was precipitated with 0.5 N perchloric acid and quantitated using diphenylamine reagent. […]

The next series has as its system gastric cancer cells. Kind of series: Differentiation of gastric cancer cells (NBT, NSE). As to conditions: Gastric cancer cells + HHT; P < 0.001. It is filed as cell-based. Here is the method: The gastric cancer cells and normal cells were cultured in PRMI 1640 medium supplement with 10% FCS serum. Other method is similar to example 1.

`COC(=O)C[C@](O)(CCCC(C)(C)O)C(=O)O[C@@H]1C(OC)=C[C@]23CCCN2CCc2cc4c(cc2[C@H]13)OCO4` [HHT, homoharringtonine] displayed an LD50 in the series on mice of 3.17 ± 0.19 mg/kg. Further, the “Apoptosis (%)” value is listed as 39.5 ± 4.1% in series [1] (HHT 500 nM (control 5.0 ± 0.49)) and 68.3 ± 7.6% in [5]. The mice died entry with normal mice was “about 50%”. The “Inhibition (%) c-myb RNA” value in the series with c-myb RNA (HHT concentration 10 ng/ml) was found to be 65.0 ± 5.7%; in the series with c-myb RNA (HHT concentration 50 ng/ml) it was 67.7 ± 6.8%. Further, the “Frequency of p^17 allelic loss (%)” value with tumor suppressor p^17 (Leukemic cancer cells treated by HHT (untreated: 40)) stood at 5%. In addition, the “Inhibition T/C (%)” value turned out to be 12.5 ± 1.2% in the series on tumor suppressor p^17 (p^17 allelic loss, Leukemic cancer cells treated by HHT) and 14.3 ± 1.5% in the series with tumor suppressor p^53 (p^53 mutations, Gastric cancer cells treated by HHT). For the same molecule, the “Inhibition (%)” value in series [2] came to 73.8 ± 8.1%; in series [3], 80.0 ± 8.5%; in the series on breast carcinoma MCF-7, 78.5 ± 7.9%; with HL-60, 80.8 ± 9.0%; with Hela it was 75.6 ± 8.0%. The “Methylation (%)” value in the series with tumor suppressor p^16 is given as 23.8^b %. Also, the “NBT (%)” value in the series on Epidermis cancer cells is reported as 80* %; with HL-60 cells, 65* %; in the series with gastric cancer cells, 58* %. Moreover, the “NSE (%)” value in the series on Epidermis cancer cells is 78* %; in the series on HL-60 cells, 62* %; in the series with gastric cancer cells it was 60* %. Moreover, the “DNA synthesis of TPA-stimulated mouse epidermis” value in series [4] is “remarkable inhibit”. The same molecule returned a Toxic dose with dogs of 0.16 mg/kg/day. Moreover, the Caspase-3 activity in the series with caspase-3 was 150.5 ± 16. Besides, in the series with tumor suppressor p^53 (Gastric cancer cells treated by HHT (no drug: 35)), the “Frequency of p^53 mutations (%)” value was 5%. Further, the “Inhibition (%) c-myc RNA” value in the series with c-myc RNA (HHT concentration 10 ng/ml) is on record as 70.5 ± 8.5%; in the series with c-myc RNA (HHT concentration 50 ng/ml), 70.8 ± 8.9%.

B1: APO-2L: also called TRAIL, has been shown to induce apoptosis of variety of cancer cell types (protein, UniProt P50591 1-281, looked up)
Tumor necrosis factor ligand …: MAMMEVQGGPSLGQTCVLIVIFTVLLQSLCVAVTYVYFTNELKQMQDKYSKSGIACFLKEDDSYWDPNDEESMNSPCWQVKWQLRQLVRKMILRTSEETISTVQEKQQNISPLVRERGPQRVAAHITGTRGRSNTLSSPNSKNEKALGRKINSWESSRSGHSFLSNLHLRNGELVIHEKGFYYIYSQTYFRFQEEIKENTKNDKQMVQYIYKYTSYPDPILLMKSARNSCWSKDAEYGLYSIYQGGIFELKENDRIFVSVTNEHLIDMDHEASFFGAFLVG
As to B1, the “Apoptosis (%)” value in series [1] (APO-2L (control 5.0 ± 0.49)) was found to be 20.8 ± 2.0%.
